In patent US8618054B2, “Interleukin-1 receptor antagonists, compositions, and methods of treatment” (Valorisation-Rechereche Société en Commandite, priority 2004, dated 2013):
Marks after values point to notes of the source that are not given here. Where a SMILES comes first, the peptide text is derived from it.

Experiments:
[1] = system: IL-1R/IL-1RacP receptor; assay: IL-1-induced PGE2 synthesis in piglet brain microvascular endothelial cells; format: cell-based, porcine; details: for potency and efficacy, IL-1-induced PGE2 synthesis: truncated derivatives, FIG. 18 (WI-38 and endothelial cells)
Method: (§1) It is well known in the art that IL-1 induces the synthesis of prostaglandin E2 (PGE2) in endothelial cells and/or chondrocytes in vitro. Therefore, human chondrocytes and piglet brain microvascular endothelial cells were pre-incubated 45-60 minutes at 37° C. with peptide API-101 (^10−6M) and human IL-1 (10 ng/ml) was added in the growing medium. After 24 hours of incubation, growth medium was collected and evaporated. PGE2 measurement was determined by RIA assay with a commercial kit (Cederlane).

[2] = TNBS-induced inflammatory bowel disease rat model, Example 6 (48 h; MPO, macroscopic, histologic); format: in vivo; set-up: macroscopic evaluation (median score): scale not given here
Method: Colon inflammation was induced by intra-rectal/colon administration of the hapten trinitrobenzene sulphonic acid (TNBS) on male Sprague-Dawley rats (175-200 g) (Bouma, Nature Rev, 2003; Morris, Gastroenterology, 1989). Animals were anesthetized with isoflurane and TNBS dissolved in 50% ethanol (vol/vol). 120 mg/ml (TNBS) was administered into the colon (total volume of 0.25 ml per rat) using a polyethylene tube (PE50). The cannula was inserted at 8 cm from the anus and kept in place for at least 15 min after TNBS administration in order to prevent expulsion of the solution. […] A third group (control) was not injected with TNBS. Six days after administration of TNBS, rats were killed by CO2 inhalation. Day 6 was chosen as an endpoint because by day 7 spontaneous tissue regeneration begins and this can mask the therapeutic effect of the tested peptide or peptide derivative. Colon was removed and examined macroscopically (adhesions, ulcerations, discoloration and bleeding) and histologically (neutrophil infiltration, epithelial injury, crypt distortion and ulcerations) (Anthony et al. 1995; Padol et al. 2000; Dieleman, L A, et al. 1997; Torres M I et al. 1999). Two animals per group were studied.
Colon inflammation was induced by intra-rectal/colon administration of the hapten trinitrobenzene sulphonic acid (TNBS) as described in Example 4. Two hours prior to TNBS administration, peptides, peptidomimetics or 0.9% saline were administered intravenously (iv) via the caudal vein (various concentrations of mg/kg/d) (total volume of 0.3 ml). […] A third group (control) was not injected with TNBS. […] Also, these IL-1R antagonists were given twice a day (BID); Remicade® (anti-TNFα) (10 mg/kg) and dexamethasone (0.75 mg/kg) were administered intraperitoneally but only once a day (qd). The intrarectal administration (ir) of 101.10, 101.113 (1 and 2.5 mg/kg), and 5-ASA (50 mg/kg) was done one hour after TNBS administration, and twice a day, except for 5-ASA which is once a day. Finally, 101.10 (1-5 mg/kg) was also administered orally by gavage (po), twice a day. Forty-eight hours after administration of TNBS, rats were killed by CO2 inhalation. Colon was removed and assessed macroscopically (adhesions, ulcerations, discoloration and bleeding) and histologically (neutrophil infiltration, epithelial injury, crypt distortion and ulcerations). One to seven animals per group were studied, according to treatments. Myeloperoxidase (MPO) activity was measured on tissue lysates.

[3] = biological target: T1, IL-1R/IL-1RacP receptor (Sus scrofa, UniProt A0A5G2QSI4); assay: IL-1-induced PGE2 synthesis in piglet brain microvascular endothelial cells; format: cell-based, porcine; details: endothelial cells; for inhibition of IL-1-induced PGE2 synthesis, compared with parent API-101: alanine scan peptides 10^−6M
T1 construct: endogenous in cells; host or cells: piglet brain microvascular endothelial cells
T1 sequence (A0A5G2QSI4 21-572): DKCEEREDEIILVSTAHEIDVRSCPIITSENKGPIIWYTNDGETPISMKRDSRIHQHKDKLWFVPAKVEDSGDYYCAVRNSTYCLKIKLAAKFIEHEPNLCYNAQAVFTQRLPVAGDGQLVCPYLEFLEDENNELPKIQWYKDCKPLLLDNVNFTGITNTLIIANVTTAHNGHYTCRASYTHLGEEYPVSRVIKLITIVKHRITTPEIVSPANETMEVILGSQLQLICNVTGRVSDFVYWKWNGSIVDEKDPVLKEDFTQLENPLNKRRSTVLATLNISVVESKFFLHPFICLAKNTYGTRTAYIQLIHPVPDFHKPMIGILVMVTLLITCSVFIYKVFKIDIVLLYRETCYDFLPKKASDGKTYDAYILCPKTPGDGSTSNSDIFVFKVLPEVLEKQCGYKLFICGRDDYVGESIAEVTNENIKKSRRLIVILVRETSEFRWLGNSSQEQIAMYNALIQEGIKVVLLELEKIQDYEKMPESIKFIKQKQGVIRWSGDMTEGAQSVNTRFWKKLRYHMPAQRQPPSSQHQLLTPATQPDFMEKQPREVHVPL
Method: as §1

[4] = biological target: T2, IL-1R (Homo sapiens, UniProt P14778); assay: Characterization of peptidomimetics (FIGS. 26, 29, 30; assay not stated); details: FIG. 26
T2 sequence (P14778 18-569): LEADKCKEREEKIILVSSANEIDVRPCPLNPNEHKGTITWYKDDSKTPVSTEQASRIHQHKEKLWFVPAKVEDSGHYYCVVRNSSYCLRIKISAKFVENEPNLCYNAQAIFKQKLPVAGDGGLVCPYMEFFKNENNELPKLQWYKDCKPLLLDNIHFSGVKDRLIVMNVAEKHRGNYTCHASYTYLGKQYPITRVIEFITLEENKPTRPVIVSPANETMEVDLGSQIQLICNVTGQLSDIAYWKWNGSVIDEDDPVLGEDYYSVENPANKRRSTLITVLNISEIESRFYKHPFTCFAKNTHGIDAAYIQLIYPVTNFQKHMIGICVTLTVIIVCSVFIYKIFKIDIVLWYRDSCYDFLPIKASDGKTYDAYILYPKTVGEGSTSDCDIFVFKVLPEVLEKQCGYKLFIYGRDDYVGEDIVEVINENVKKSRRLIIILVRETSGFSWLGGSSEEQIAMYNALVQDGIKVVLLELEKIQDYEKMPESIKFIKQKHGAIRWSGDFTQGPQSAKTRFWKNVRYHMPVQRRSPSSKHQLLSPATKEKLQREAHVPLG

[5] = system: IL-1R/IL-1RacP receptor; assay: Ex vivo vasomotricity: reversal of IL-1β-induced vasodilation of piglet pial vessels; details: IL-1β 75 ng/ml
Method: Ex vivo vasomotor response on brain vessels was performed as described (Li et al., 1996; Hou et al., 2000; Hou et al., 2001; Hou et al., 2003). Brains were removed from Yorkshire piglets. Slices of cortex exposing the pial vessels were pinned to a wax base of a 20 ml bath containing Krebs buffer (pH 7.4) equilibrated with 95% O2, 5% CO2 and maintained at 37° C. Microvessels were visualized and recorded using a video camera mounted on a dissecting microscope. Vascular diameter was measured using a digital image analyzer. Vascular diameter was recorded before and after topical application of pre-constricting agent, U46619 (10^−7 M). After stabilization of preparation, the ligand (IL-1β, 75 ng/ml) was added until stable vasodilation was detected. Peptides were subsequently added at different concentrations from 10^−10 to 10^−5 M. Reversal of vasodilatation was visualized and measured as previously described (Hou, et al. 2000; Hou et al. 2001; Hou et al. 2003); triplicate measurements were conducted on 2 animals.

[6] = biological target: T3, IL-1R/IL-1RacP receptor (Homo sapiens, UniProt P14778); assay: IL-1-induced PGE2 synthesis in human chondrocytes; format: cell-based; set-up: endogenous in cells; details: alanine scan peptides 10^−6M
T3 sequence (P14778 18-569): T2 sequence (P14778 18-569)
Method: as §1

[7] = biological target: T4, IL-1R/IL-1RacP receptor (Rattus norvegicus, UniProt Q02955); assay: IL-1β-induced systemic hypotension in rats; format: in vivo; details: jugular injection
T4 construct: from tissue; host or cells: whole animal, Sprague-Dawley rat
T4 sequence (Q02955 20-576): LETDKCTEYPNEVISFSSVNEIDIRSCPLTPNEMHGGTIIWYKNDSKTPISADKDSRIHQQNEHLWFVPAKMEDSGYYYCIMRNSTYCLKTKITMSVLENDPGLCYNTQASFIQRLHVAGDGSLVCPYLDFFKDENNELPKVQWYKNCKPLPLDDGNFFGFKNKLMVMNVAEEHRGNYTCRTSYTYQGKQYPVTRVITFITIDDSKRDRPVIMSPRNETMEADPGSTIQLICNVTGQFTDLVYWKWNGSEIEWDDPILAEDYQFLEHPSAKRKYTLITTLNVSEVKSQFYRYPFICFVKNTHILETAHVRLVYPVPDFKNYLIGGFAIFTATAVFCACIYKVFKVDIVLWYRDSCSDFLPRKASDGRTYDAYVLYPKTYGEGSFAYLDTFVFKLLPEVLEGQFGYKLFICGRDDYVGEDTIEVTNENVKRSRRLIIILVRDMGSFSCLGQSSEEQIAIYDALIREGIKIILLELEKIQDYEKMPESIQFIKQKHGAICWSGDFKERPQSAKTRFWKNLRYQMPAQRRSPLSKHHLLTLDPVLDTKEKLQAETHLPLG
Method: The API-101 derivatives, API-101.10 (SEQ ID NO: 10) (and others) were tested to assess whether they could reverse the physiological actions of the natural ligand in vivo by injecting the derivative through the jugular or directly into the stomach (to verify the stability of the peptide through the digestive tract). Sprague-Dawley rats (300 g) were anesthetized with isoflurane (2.5-4%). The natural ligand (IL-1β) or vehicle (saline) was injected through the jugular vein (5 μg/kg). Blood was taken from the carotid artery for subsequent PGE2 measurements before and 10 min after each injection. Peptides were administered (dosage based on IC50 values and a volume of distribution equivalent to the extracellular space) either in the jugular vein or directly in the stomach (5 times dose used intravenously, (iv)). Arterial blood pressure and heart rate were continuously monitored (Gould) while temperature and blood gases (Radiometer) were measured for routine analysis as previously described (Li et al. 1997; Hardy et al. 1999; Najarian et al. 2000). Experiments were repeated 3 times.

[8] = Continuous infusion (ip), 0.5 mg/kg/d
[9] = Intermittent injection ip, 0.2-BID mg/kg/d

CC(C)C[C@@H](NC(=O)[C@@H](CCC(=O)O)NC(=O)[C@H]1CCCN1C(=O)[C@H](NC(=O)[C@@H](Cc1ccc(O)cc1)NC(=O)[C@H](N)CCCNC(=N)N)[C@H](C)O)C(=O)N[C@H](C)C(N)=O [API-101.107, RYTPELA] (HELM PEPTIDE1{[dR].[dY].[dT].[dP].[dE].[dL].[dA].[am]}$$$$V2.0; C-terminus assumed)
IC50 ([1]; FIG. 15, cell type not stated): 1.2 pM | MPO (% of TNBS + Saline) [2, 8]: 37 % of TNBS + Saline | histologic evaluation (median score) [2, 8]: 1.5 | MPO (% of TNBS + Saline) [2, 9]: 112 % of TNBS + Saline | histologic evaluation (median score) [2, 9]: 2.5 | macroscopic evaluation (median score) [2, 9]: 1.37^† | reduction in MPO activity, macroscopic and histologic score, compared with Kineret ([2]; intraperitoneal osmotic pumps (continuous infusion)): superior or equivalent in efficacy to Kineret

CC(C)C[C@@H](NC(=O)[C@@H](CCC(=O)O)NC(=O)[C@H]1CC[C@H]2CC[C@@H](NC(=O)[C@@H](Cc3ccc(O)cc3)NC(=O)[C@H](N)CCCNC(=N)N)C(=O)N21)C(=O)N[C@H](C)C(N)=O [API-101.110, RY(I^2aa)ELA]
efficacy compared with API-101.107 [3]: twice the efficacy | potency, fold higher than API-101.107 [3]: 10 fold | IC50 [4]: 10 pM

AARYTVELA [API-101.1]
inhibition of IL-1-induced PGE2 synthesis, compared with parent API-101 [3]: slightly improved efficacy | reversal of IL-1β-induced vasodilation [5]: reversed the vasodilation | vasodilation abolished [5]: 70% | inhibition of IL-1-induced PGE2 synthesis, compared with parent API-101 [6]: slightly improved efficacy

APRYTVALA [API-101.6]
inhibition of IL-1-induced PGE2 synthesis, compared with parent API-101 [3]: lost almost all activity | reversal of IL-1β-induced vasodilation [5]: reversed the vasodilation | inhibition of IL-1-induced PGE2 synthesis, compared with parent API-101 [6]: lost almost all activity

PRYTVELA [API-101.9]
prevention of IL-1β-induced hypotension, in words [7]: less effective

TVELA [API-101.12]
potency and efficacy, IL-1-induced PGE2 synthesis [1]: decrease in potency and efficacy

YTVELA [API-101.11]
potency and efficacy, IL-1-induced PGE2 synthesis [1]: decrease in potency and efficacy
